This is an account of results in patent publication US8361995B2, “Drug comprising at least one gestagen” (Richter Gedeon Nyrt., priority 2007, dated 2013).

Structures are written as SMILES.

The test system of one experiment is human melanocytes. The experiment in a line: proliferation of human melanocytes cultured with hormones (cell counting, proliferation and apoptosis tests). The class given is cell-based. The conditions noted are these: analysed after 9 days. The procedure:
In a series of experiments, the influence of chlormadinone acetate (CMA) on the proliferation or pigment formation of human melanocytes was examined. To this end, human melanocytes were cultured in each case in the corresponding culture medium, which in each case contained different quantities of ethinyl oestradiol (EO), chlormadinone acetate (CMA) or a combination thereof. The individual compositions are summarised below in Table 1. [table] After 9 days the human melanocytes were analysed in vitro. Cell growth and cell death were determined by cell counting by means of Typan blue staining and by commercial cell proliferation and apoptosis tests. Pigment formation was determined both by measuring the melanin concentration of the cells and by measuring tyrosinase, the key enzyme in pigment formation.

In the next experiment the test system is tyrosinase. The experiment in a line: pigment formation of human melanocytes: tyrosinase activity. Format: cell-based. The note with it: 1 nM as the sole hormone in the culture medium; analysed after 9 days. The procedure: In a series of experiments, the influence of chlormadinone acetate (CMA) on the proliferation or pigment formation of human melanocytes was examined.
To this end, human melanocytes were cultured in each case in the corresponding culture medium, which in each case contained different quantities of ethinyl oestradiol (EO), chlormadinone acetate (CMA) or a combination thereof. The individual compositions are summarised below in Table 1.
After 9 days the human melanocytes were analysed in vitro. Cell growth and cell death were determined by cell counting by means of Typan blue staining and by commercial cell proliferation and apoptosis tests. Pigment formation was determined both by measuring the melanin concentration of the cells and by measuring tyrosinase, the key enzyme in pigment formation.

In the case of `C#C[C@]1(O)CC[C@H]2[C@@H]3CCc4cc(O)ccc4[C@H]3CC[C@@]21C` [ethinyl oestradiol], the “proliferation of human melanocytes” value in the experiment with human melanocytes (1 nM as the sole hormone in the culture medium) is listed as “increased”. Also, in the experiment on tyrosinase, the “tyrosinase activity of human melanocytes” value is reported as “increased”.

As to `CC(=O)O[C@]1(C(C)=O)CC[C@H]2[C@@H]3C=C(Cl)C4=CC(=O)CC[C@]4(C)[C@H]3CC[C@@]21C` [chlormadinone acetate], in the experiment with human melanocytes (100 nM in the culture medium), the “reduction of the proliferation rate of human melanocytes” value is recorded as 50-70%.
